Structures are written as SMILES. Like-named read-outs stand apart in the source and are kept apart here.

As usually defined, the IC50 is the concentration that inhibits the measured activity by half. One may read the clearance as a measure of how efficiently the substance is removed, as volume per time. A low value points to inefficient removal. Broadly, the Cmax is the peak of the concentration-time curve.

One data set concerns the target HIS-KRAS(G12C) (Homo sapiens (Human), UniProt P01116, G12C). Briefly: SOS1 catalyzed nucleotide exchange assay (TR-FRET). The format is biochemical. The note with it: GDP-loaded HIS-KRAS(G12C), 1 hour pre-incubation, TR-FRET. How it is done: TR-FRET signals were then read on Tecan Spark multimode microplate reader. […] TR-FRET ratios for each individual wells were calculated by equation: TR-FRET ratio=(Signal F515/Signal F486)*10000. Then the data were analyzed using a 4-parameter logistic model to calculate IC50 values.
On the technique in general: In TR-FRET formats the signal depends on donor and acceptor labels being close together.

The test system of data set [1] is NCI-H358 cells expressing KRAS G12C mutant protein. Description: Phospho-ERK1/2(THR202/TYR204) HTRF assay. As to conditions: 2 hours incubation, read-out: p-ERK IC50. The data set is classed as cell-based. The method, then: The NCI-H358 cells in culture medium were seeded in 96-well plates at a concentration of 40,000 cells/well and then put in a 37° C./5% CO2 cell incubator to incubate overnight. […] After 2 hours incubation in a 37° C./5% CO2 cell incubator, the assay medium in 96-well plates was removed, then 50 μL of 1× blocking reagent-supplemented lysis buffer (Cisbio) was added and the plates were incubated at 25° C. for 45 min with shaking. 10 μL of cell lysates from the 96-well plates were transferred to a 384-well plate (Greiner) containing 2.5 μL/well HTRF® pre-mixed antibodies (Cisbio 64AERPEH). Incubate 4 hours at 25° C. and then read HTRF signals on Tecan Spark multimode microplate reader. The data were analyzed using a 4-parameter logistic model to calculate IC50 values.

The nature of data set [2]: Mouse pharmacokinetic study. The data set is classed as in vivo, Balb/c mouse. How it is done:
The purpose of this study was to evaluate the pharmacokinetic properties of compounds in Balb/c mouse (♀) following single dose administration. The day before administration, mice were fasted overnight and free access to water. Six mice were needed for each compound and the six mice were divided into two groups (n=3/group), group A and group B. Mice in group A were treated with a single 3 mg/kg dose of compound (iv). Mice in group B were treated with a single 10 mg/kg dose of compound (po). For each mouse in group A, blood samples were collected at pre-dose, and at the time point of 0.083, 0.25, 0.5, 1, 2, 4, 6, 8 and 24 h post-dose. For each mouse in group B, blood samples were collected at pre-dose, and at the time point of 0.25, 0.5, 1, 2, 3, 4, 6, 8 and 24 h post-dose. Blood samples were placed on ice until centrifugation to obtain plasma samples. The plasma samples were stored at −80° C. until analysis. The concentration of compound in plasma samples was determined using a LC-MS/MS method.

Sequence of HIS-KRAS(G12C) (P01116 other isoform, or with tags, fused parts or gaps G12C): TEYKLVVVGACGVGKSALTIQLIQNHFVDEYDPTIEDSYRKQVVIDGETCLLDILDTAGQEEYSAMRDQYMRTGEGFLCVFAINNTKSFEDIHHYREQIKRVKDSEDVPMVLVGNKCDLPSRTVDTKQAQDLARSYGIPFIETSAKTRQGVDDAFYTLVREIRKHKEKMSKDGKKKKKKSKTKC

In the case of `C=CC(=O)N1CCN(c2nc(=O)n(-c3c(C)ccnc3C(C)C)c3nc(-c4c(N)c(F)c(F)c(F)c4F)c(F)cc23)[C@@H](C)C1` [Compound 2, 4-((S)-4-acryloyl-2-methylpiperazin-1-yl)-7-(2-amino-3,4,5,6-tetrafluorophenyl)-6-fluoro-1-(2-isopropyl-4-methylpyridin-3-yl)pyrido[2,3-d]pyrimidin-2(1H)-one], the half-inhibitory concentration (IC50) at HIS-KRAS(G12C) is 2.04 nM; in data set [1] (Homo sapiens, NCI-H358, 2 h), 30.7 nM. In addition, the “Pharmacokinetic properties in words” value in data set [2] (mouse model, 3 mg/kg iv and 10 mg/kg po) is given as “good pharmacokinetic properties”. The molecule further came in with a clearance in data set [2] (plasma, Balb/c mouse (female), 3 mg/kg, iv) of 65.2 mL/min/kg. Also, in data set [2] (plasma, Balb/c mouse (female), 3 mg/kg, iv, read-out: Vss), the Vd was 2.31 L/kg. The AUC(0-t) in data set [2] (plasma, Balb/c mouse (female), 10 mg/kg, po, read-out: AUC0-24 h) is 1150 ng·h/mL. The Cmax in data set [2] (plasma, Balb/c mouse (female), 10 mg/kg, po, read-out: Cmax) came out at 1440 ng/mL. Also, the bioavailability in data set [2] (plasma, Balb/c mouse (female), 10 mg/kg, po, read-out: Oral BA (F %)) stood at 44.7%.

On to `C=CC(=O)N1[C@H](C)CN(c2nc(=O)n(-c3c(C)ccnc3C(C)C)c3nc(-c4c(N)c(F)c(F)c(F)c4F)c(F)cc23)C[C@@H]1C` [Compound 5, 4-((3S,5R)-4-acryloyl-3,5-dimethylpiperazin-1-yl)-7-(2-amino-3,4,5,6-tetrafluorophenyl)-6-fluoro-1-(2-isopropyl-4-methylpyridin-3-yl)pyrido[2,3-d]pyrimidin-2(1H)-one], for which the IC50 on HIS-KRAS(G12C) was determined as 5.41 nM; in data set [1] (Homo sapiens, NCI-H358, 2 h), 48.8 nM.

Turning to `C=CC(=O)N1CCN(c2nc(=O)n(-c3c(C)ccnc3C(C)C)c3nc(-c4c(F)c(F)c(F)c(N)c4Cl)c(F)cc23)[C@@H](C)C1` (single isomer, unassigned) [Compound 1-1], the IC50 on HIS-KRAS(G12C) was 4.08 nM; in data set [1] (Homo sapiens, NCI-H358, 2 h), 16.6 nM.

For `C=CC(=O)N1CCN(c2nc(=O)n(-c3c(C)ccnc3C(C)C)c3nc(-c4c(N)c(F)c(F)c(F)c4F)c(F)cc23)C[C@H]1C` (single isomer, unassigned) [Compound 4-1], the IC50 is 3.31 nM against HIS-KRAS(G12C) and 40.9 nM in data set [1] (Homo sapiens, NCI-H358, 2 h).

Turning to `C=CC(=O)N1[C@H](C)CN(c2nc(=O)n(-c3c(C)ccnc3C(C)C)c3nc(-c4c(N)c(F)c(F)c(F)c4F)c(F)cc23)C[C@@H]1C` (single isomer, unassigned) [Compound 5-2], the figures for the IC50 (against HIS-KRAS(G12C); in data set [1]) were 96.1 nM and 774 nM, respectively.

Take `C=CC(=O)N1[C@H](C)CN(c2nc(=O)n(-c3c(C)ccnc3C(C)C)c3nc(-c4c(N)c(F)c(F)c(F)c4F)c(F)cc23)C[C@@H]1C` (single isomer, unassigned) [Compound 5-1]: the figures for the 50% inhibitory concentration (IC50) (against HIS-KRAS(G12C); in data set [1]) were 3.3 nM and 17.8 nM, respectively.
